Literature values as cited in patent US9155702B2, “Composition and microsphere for controlled-release of exendin, and method preparing the same” (PEPTRON CO., LTD, priority 2007, dated 2015).

Tested on: diabetic ob/ob mice
Conditions: intraperitoneal injections once per day

exendin-4
effect of lowering the blood-sugar level: prolonged effect of lowering the blood-sugar level
